Test results: ChEMBL document CHEMBL3407453, “LEADOPT: an automatic tool for structure-based lead optimization, and its application in structural optimizations of VEGFR2 and SYK inhibitors” (Eur J Med Chem, 2015)
pIC50: −log10 of the molar value. Calls of active or inactive are those of the source. The rule behind the calls is not given here.

Assays:
[1] = biological target: T1, Vascular endothelial growth factor receptor 2 (Homo sapiens, UniProt P35968); assay: Inhibition of VEGFR2-mediated ERK1/2 phosphorylation in VEGF-stimulated HUVEC cells at 0.01 to 10 uM after 2 hrs by Western blot analysis; assay type: cell-based
T1 sequence (P35968 whole entry): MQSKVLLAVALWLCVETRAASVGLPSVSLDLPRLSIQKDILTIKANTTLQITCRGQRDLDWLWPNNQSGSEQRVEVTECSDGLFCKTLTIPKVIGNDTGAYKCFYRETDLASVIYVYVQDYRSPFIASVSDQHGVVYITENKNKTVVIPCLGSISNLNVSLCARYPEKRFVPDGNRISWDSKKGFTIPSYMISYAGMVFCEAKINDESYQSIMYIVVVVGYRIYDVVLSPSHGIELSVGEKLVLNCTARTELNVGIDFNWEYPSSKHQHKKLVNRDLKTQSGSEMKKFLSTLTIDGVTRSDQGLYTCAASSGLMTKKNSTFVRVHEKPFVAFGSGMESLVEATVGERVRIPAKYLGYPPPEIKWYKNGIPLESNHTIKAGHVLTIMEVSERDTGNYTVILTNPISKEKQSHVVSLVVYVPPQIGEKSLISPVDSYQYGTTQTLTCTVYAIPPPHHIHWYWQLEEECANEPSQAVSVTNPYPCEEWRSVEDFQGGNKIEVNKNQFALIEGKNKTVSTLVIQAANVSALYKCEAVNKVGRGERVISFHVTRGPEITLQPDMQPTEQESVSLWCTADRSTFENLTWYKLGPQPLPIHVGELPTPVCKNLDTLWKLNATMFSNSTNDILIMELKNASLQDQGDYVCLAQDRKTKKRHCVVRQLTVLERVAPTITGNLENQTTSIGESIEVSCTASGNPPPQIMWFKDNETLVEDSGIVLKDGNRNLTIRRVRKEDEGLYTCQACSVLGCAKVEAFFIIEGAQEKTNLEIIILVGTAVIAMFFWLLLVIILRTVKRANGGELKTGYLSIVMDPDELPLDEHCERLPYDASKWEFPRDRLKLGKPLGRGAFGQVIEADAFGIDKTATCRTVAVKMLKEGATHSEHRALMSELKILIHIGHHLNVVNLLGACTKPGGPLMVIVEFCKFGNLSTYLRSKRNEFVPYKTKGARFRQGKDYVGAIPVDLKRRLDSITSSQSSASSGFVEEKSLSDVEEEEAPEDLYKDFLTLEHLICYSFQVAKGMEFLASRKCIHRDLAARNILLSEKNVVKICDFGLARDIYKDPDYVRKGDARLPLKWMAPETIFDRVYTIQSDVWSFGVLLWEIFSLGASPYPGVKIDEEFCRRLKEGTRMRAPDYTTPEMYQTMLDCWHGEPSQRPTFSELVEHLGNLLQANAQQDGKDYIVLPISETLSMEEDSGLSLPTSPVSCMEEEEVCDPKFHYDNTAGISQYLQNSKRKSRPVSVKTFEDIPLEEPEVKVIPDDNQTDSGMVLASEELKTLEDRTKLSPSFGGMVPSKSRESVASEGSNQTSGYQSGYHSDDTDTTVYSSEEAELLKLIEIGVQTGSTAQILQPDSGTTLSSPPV

[2] = tested on: HUVEC; assay: Antiangiogenic activity in HUVEC cells assessed as inhibition of cell migration after 18 hrs by wound healing assay; assay type: functional, cell-based; conditions: Homo sapiens
[3] = biological target: T1, Vascular endothelial growth factor receptor 2; assay: Inhibition of VEGFR2 (unknown origin) by [33P]radiolabeled method
[4] = biological target: T1, Vascular endothelial growth factor receptor 2; conditions: HUVEC, at 0.01 to 10 µM
Description: Inhibition of VEGFR2 phosphorylation in VEGF-stimulated HUVEC cells at 0.01 to 10 uM after 2 hrs by Western blot analysis

[5] = tested on: HUVEC; assay: Antiangiogenic activity in HUVEC cells assessed as inhibition of cell migration at 5 uM after 18 hrs by wound healing assay; assay type: functional, cell-based; conditions: Homo sapiens
[6] = biological target: T2, Tyrosine-protein kinase SYK (Homo sapiens, UniProt P43405); assay: Inhibition of SYK-mediated FLT3 phosphorylation in human MV4-11 cells at 0.01 to 1 uM after 6 hrs by Western blot analysis; assay type: cell-based
[7] = tested on: Ramos; assay: Cytotoxicity against human Ramos cells assessed as reduction in cell viability after 72 hrs by MTT assay; assay type: functional, cell-based
[8] = tested on: MV4-11; assay: Cytotoxicity against human MV4-11 cells assessed as reduction in cell viability after 72 hrs by MTT assay; assay type: functional, cell-based; conditions: MV4-11, 72 h
[9] = biological target: T2, Tyrosine-protein kinase SYK; assay: Inhibition of SYK-mediated ERK1/2 phosphorylation in human MV4-11 cells at 0.01 to 1 uM after 6 hrs by Western blot analysis; assay type: cell-based
[10] = biological target: T2, Tyrosine-protein kinase SYK; assay: Inhibition of SYK (unknown origin)

pIC50 [3]	pIC50 [10]	Structure (SMILES)	other results
7.77		CNC(=O)c1cc(Oc2ccc(NC(=O)Nc3cc(C(C)(C)C)on3)cc2)ccn1	inhibition [1]: Active; inhibition [2]: Dose-dependent effect; inhibition [4]: Active; inhibition [5]: Active
		CNC(=O)c1cc(Oc2ccc(NC(=O)Nc3ccc(Cl)c(C(F)(F)F)c3)cc2)ccn1	inhibition [5]: Active
	7.89	Cc1cc(N)c2cc(Nc3nc(Nc4ccc(N5CCN(C)CC5)cc4)ncc3F)ccc2n1	inhibition [6]: Active; pIC50 [7]: 6.29; pIC50 [8]: 8.52; inhibition [9]: Active
6.67		N#Cc1cc(Oc2ccc(NC(=O)Nc3ccc(Cl)c(C(F)(F)F)c3)cc2)ccn1	
7.64		Nc1nccc(Oc2ccc(NC(=O)Nc3ccc(Cl)c(C(F)(F)F)c3)cc2)n1	
	5.95	COc1cc(Nc2ncc(F)c(Nc3cccc(C(N)=O)c3)n2)cc(OC)c1OC	
6.92		O=C(Nc1ccc(Oc2ccnc3ccccc23)cc1)Nc1ccc(Cl)c(C(F)(F)F)c1	
	5.53	COc1cc(Nc2ncc(F)c(Nc3ccc4nc(C)cc(N)c4c3)n2)cc(OC)c1OC	
7.44		CNC(=O)c1nccc(Oc2ccc(NC(=O)Nc3nc4ccccc4s3)cc2)n1	
6.92		Nc1nccc(Oc2ccc(NC(=O)Nc3nc4ccccc4s3)cc2)n1	
	6.49	COc1cc(Nc2ncc(F)c(Nc3cc(Cl)ccc3C(N)=O)n2)cc(OC)c1OC	
